“Also recorded” adds a separate entry of the source.
Experiments:
[1] = from reference 14; cited from earlier work
[2] = HyperCEST 129Xe MR imaging of syringes with CB6 blood solution and saturation map; format: physicochemical, bovine; conditions: 2.5 mM CB6 in blood, on-resonance pre-pulses at 124.3 ppm (FIG. 4)
From the text: We obtained MR images of two syringes within the same field of view: one filled with a CB6 blood solution, the other with only a blood solution and no CB6 molecules (FIG. 4). Signal from the plasma, gas phase, and RBC-bound xenon is present in the control image (FIG. 4A). We observed a gas phase chemical shift artifact, offset by 43 pixels of 67.1 mm. Additionally, we observed a stronger gas phase signal from the control solution (right syringe) than the CB6 syringe (left syringe). We attribute this phenomenon to the differences in the extent of blood foam formation between the two solutions. The control solution foamed more than the CB6 solution, which provided a reservoir of gaseous hyperpolarized xenon to exchange with the xenon dissolved in the plasma providing a stronger xenon-plasma signal. […] A saturation map was produced (FIG. 4C) by normalizing each image by Its own background noise and subtracting the off-resonance control image from the HyperCEST saturation image and normalizing pixel-by-pixel, the off-resonance image. […]
^129Xe gas was polarized to 30% using a Xemed polarizer (Xemed, Durham, N.H.). […] The signal-noise ratio (SNR) of each spectrum was calculated using MATLAB (MathWorks, Natick Mass.). Signal depletion values due to the HyperCEST effect were measured by subtracting the HyperCEST saturation spectrum SNR from the control spectrum SNR and dividing by the control SNR.

[3] = HyperCEST depletion of CB6 in whole bovine blood (129Xe NMR spectra, 3T); format: physicochemical
Procedure: […] of cucurbituril (CB6) was made by dissolving 50 mg of CB6 (Sigma-Aldrich, St. Louis, USA) in 10 mL of 1× phosphate buffered saline (PBS) at pH 7.2 at room temperature. The mixture was shaken gently. Ten mL of the CB6-PBS solution was mixed with 10 mL of fresh citrated bovine blood (Cederlane, Burlington Calif.) within a 30 mL syringe to create a 2.5 mM solution of CB6 in a blood solution. The control sample was prepared in an identical manner as the CB6 solution except CB6 was omitted. The control sample contained 10 mL of PBS and 10 mL of bovine blood.
Serial dilutions of CB6 in blood were made by adding an appropriate amount of blood to the 2.5 mM stock solution.
^129Xe gas was polarized to 30% using a Xemed polarizer (Xemed, Durham, N.H.). 7.5 mL of HP ^129Xe gas was introduced into the syringe over 5 s from the Tedlar bag in the pressure chamber which was pressurized at 3 psi above atmosphere. The solution and gas were mixed by agitating the syringe for approximately 12 s. Approximately 3 mL of ^129Xe dissolved in the blood/PBS solvent, the remaining undissolved ^129Xe was ejected from the syringe, yielding an effective ^129Xe concentration of 7.5 mM. The procedure was repeated for each spectral acquisition for the HyperCEST depletion spectrum. The 30 mL syringe containing the CB6-blood solution was placed inside a custom RF coil tuned to the Larmor frequency of 129Xe (35.33 MHz) at 3T. A Philips Achieva 3T clinical scanner was used to acquire all NMR spectra and MR images. A free induction decay (FID) was collected and the chemical shift of the ^129Xe/CB6 complex was noted. Ref B1 is a parameter of Philips MR scanners and is used to calculate the RF pulse length. The scanner uses the pulse length and flip angle to determine the amplitude of the RF pulse and field strength. For these experiments, the scanner set a B1 field strength of 1.18 μT. For the NMR spectra and images, a pulsed saturation pre-pulse train consisting of 16-6 ms 3-lobe sinc pulses with 3 ms pulse intervals was applied +124.3 ppm off resonance from the gas phase peak which corresponds to the chemical shift of the CB6-Xe complex. For initial HyperCEST depletion measurements, control spectra were collected with an off resonance saturation pre-pulse at 258 ppm. A HyperCEST depletion spectrum was collected by measuring HyperCEST depletion at various shift offsets from the CB6/Xe peak. A minimum of 3 spectra were collected at each chemical shift and the mean signal depletion was plotted as a function of the frequency of the chemical shift offset. The signal-noise ratio (SNR) of each spectrum was calculated using MATLAB (MathWorks, Natick Mass.). Signal depletion values due to the HyperCEST effect were measured by subtracting the HyperCEST saturation spectrum SNR from the control spectrum SNR and dividing by the control SNR.

[4] = In vivo HyperCEST 129Xe MRI saturation maps showing location of CB6; parameters: species or system Sprague-Dawley rat; conditions: rat
From the text: We then acquired ^1H turbo spin echo (TSE) MR images to correlate the xenon signal with its anatomical location. Immediately prior to ^129Xe image acquisition, the rat was ventilated with xenon as described above. The imaging sequence began with a saturation pre-pulse consisting of sixteen 20 ms 3-lobe sinc pulses with a 3 sec pulse interval applied at […] chemical shift frequencies. ^129Xe gradient echo (GE) images were acquired with both on-resonance and off-resonance saturation pre-pulses (FIGS. 6 & 7B & E). […] By applying the HyperCEST saturation pulses, we observed a reduction in signal in areas containing the CB6 molecules (FIGS. 6 & 7E).
We also created a HyperCEST saturation map in the brain of the rat (FIG. 8B).
All animal procedures were approved by the Lakehead University Animal Care Committee. Sprague-Dawley rats (n=6) (Charles River, Sherbrook QC) weighing between 300-400 g were anesthetized using 4 LPM of isoflurane until their corneal reflex became absent. […]
(§1) A midline incision was made in the neck of the rat and the trachea localized. […] A Positive End Expiratory Pressure of 20 mBar was measured. […]
30 minutes following CB6 injection, the ventilator was set to dispense xenon to the rat. […] Images were collected and analyzed using MATLAB. […]

[5] = In vivo HyperCEST 129Xe MR spectra of abdomen and brain after IV CB6; parameters: species or system Sprague-Dawley rat; conditions: 3 mL of 10 mM CB6 IV, pre-pulse +124.3 ppm
Procedure: A 10 mM solution of the CB6 cage molecule dissolved in 1×PBS (pH 7.2) was prepared. 3 mL of the CB6 solution was injected into the tail vein catheter of a Sprague-Dawley rat and allowed to bio-distribute for 30 minutes. An endotracheal tube was surgically placed in the anaesthetized rat, and the rat was ventilated with 100% oxygen using a custom made ventilator. The rat was placed into a whole body custom made rat RF coil. Five seconds prior to xenon MR image acquisition, the rat was ventilated with a gas mixture of 80% xenon/20% oxygen. We acquired free induction decay (FID) magnetic resonance spectra (MRS) (FIGS. 5 & 6, A & D) from both the abdomen and head of the rat. […] We attribute this to a variety of susceptibility and line broadening effects occurring in vivo. […]
as §1
30 minutes following injection of CB6, the ventilator was set to continuously dispense an 80% xenon/20% oxygen mixture to the rat. […] The signal to noise ratio (SNR) of each spectrum was calculated using MATLAB. The HyperCEST depletion at each chemical shift offset was calculated and plotted using Microsoft Excel.

For `O=C1N2CN3C(=O)N4CN5C(=O)N6CN7C(=O)N8CN9C(=O)N%10CN%11C(=O)N%12CN1C1C2N2CN%13C(=O)N(CN%14C(=O)N(CN%15C(=O)N(CN%16C(=O)N(CN%17C(=O)N(CN1C2=O)C%12C%11%17)C%10C9%16)C8C7%15)C6C5%14)C4C3%13` (centres unmarked) [CB6, cucurbituril], the Xe-CB6 exchange [1] is given as 1470 s⁻¹, the “Depletion of dissolved phase xenon signal in MR image and saturation map” value [2] is given as “almost complete depletion; also recorded: strong CB6 HyperCEST signal depletion” and the “HyperCEST depletion as a function of CB6 concentration” value ([3]; 250 μM CB6 in whole bovine blood (FIG. 3)) is given as 14%. The “HyperCEST depletion in the dissolved phase xenon signal” value ([3]; 2.5 mM CB6 in blood and PBS, saturation pre-pulse train at +124.3 ppm (FIG. 1)) was 84%, the “HyperCEST depletion as a function of CB6 concentration” value ([3]; 2.5 mM CB6 in whole bovine blood (FIG. 3)) was 80% and the “HyperCEST signal depletion, local minimum of depletion spectrum” value ([3]; CB6 in blood, pulsed at +124.3 ppm (FIG. 2)) was 74%. For the same compound, the “Lowest CB6 concentration at which HyperCEST depletion was measurable” value ([3]; serial dilutions of CB6 in blood) was 10 µM, the “Location of CB6 in HyperCEST saturation map” value ([4]; 3 mL of 10 mM CB6 IV, imaging 30 minutes after injection) was “heart, lungs, aorta, kidneys, and bladder; also recorded: brain, heart, lungs, aorta, carotid arteries, and kidneys” and the “Excretion of CB6” value ([4]; weak HyperCEST signal from the bladder) was “renal clearance into the bladder; also recorded: excreted by the kidneys”. The “Reduction in signal intensity compared to the off-resonance control spectrum” value ([5]; rat abdomen, 30 minutes) was 86% and the “Reduction in signal intensity of the MR signal” value ([5]; rat brain) was 38%.
